The text below walks through data of US9149475B2, “Protein kinase C inhibitors and uses thereof” (Rigel Pharmaceuticals, Inc., priority 2009, dated 2015).

One may read the IC50 as the concentration at which inhibition is half-maximal.

The first assay concerns Human primary T cells. The experiment in a line: IL-2 ELISA, human primary T cell, anti-CD3+CD28+ (whole cell assay). In kind it is cell-based. Conditions: Homo sapiens, T-cell, 24 h, human primary T cells stimulated with anti-CD3 + anti-CD28, 24 hours. Put shortly: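 PBMC-derived T cells, pre-expanded on αCD3/αCD28 with IL-2 and then washed free of IL-2, were preincubated with compound for 1 hr at 37° C (100,000 cells/well). They were then stimulated on 1 μg/ml αCD3 plus 5 μg/ml αCD28 for 24 h, and supernatant IL-2 was measured by ELISA. The counter-assay used 0.5 ng/ml PMA plus 0.1 μM ionomycin instead.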
Take `CC1(C)CC(Nc2nc(Nc3cc(F)c(OC4CCCN(S(C)(=O)=O)CC4)c(F)c3)ncc2F)CC(C)(C)N1` (stereo not drawn) [III-80, N2-(3,5-difluoro-4-(1-(methylsulfonyl)azepan-4-yloxy)phenyl)-5-fluoro-N4-(2,2,6,6-tetramethylpiperidin-4-yl)pyrimidine-2,4-diamine]: the IC50 is more than 1000 nM.
The same measure, in the same setting: the same measure for `CC1(C)CC(Nc2nc(Nc3ccc(OC(C)(C)CCN4CCCC4)c(F)c3)ncc2F)CC(C)(C)N1` [III-46, 5-fluoro-N2-(3-fluoro-4-(2-methyl-4-(pyrrolidin-1-yl)butan-2-yloxy)phenyl)-N4-(2,2,6,6-tetramethylpiperidin-4-yl)pyrimidine-2,4-diamine]: 500 to 1000 nM; for `CC1(C)CC(Nc2nc(Nc3ccc(OC(C)(C)CN4CCCC4)c(OC(F)F)c3)ncc2F)CC(C)(C)N1` [Compound I-124, N2-(4-(2-methyl-1-(pyrrolidin-1-yl)propan-2-yloxy)-3-(difluoromethoxy)phenyl)-5-fluoro-N4-(2,2,6,6-tetramethylpiperidin-4-yl)pyrimidine-2,4-diamine]: 500 to 1000 nM; for `CN1C(C)(C)CC(Nc2nc(Nc3cc(F)c(OC(C)(C)CCN4CCCC4)c(F)c3)ncc2F)CC1(C)C` [III-49, N2-(3,5-difluoro-4-(2-methyl-4-(pyrrolidin-1-yl)butan-2-yloxy)phenyl)-5-fluoro-N4-(1,2,2,6,6-pentamethylpiperidin-4-yl)pyrimidine-2,4-diamine]: more than 1000 nM.
The same measure, in the same setting: for `Cc1nnnn1-c1cc(Nc2ncc(F)c(NC3CC(C)(C)NC(C)(C)C3)n2)ccc1OC(F)(F)F` [Compound I-21, 5-fluoro-N2-(3-(5-methyl-1H-tetrazol-1-yl)-4-(trifluoromethoxy)phenyl)-N4-(2,2,6,6-tetramethylpiperidin-4-yl)pyrimidine-2,4-diamine] the value was less than 250 nM; for `CC1(C)CC(Nc2nc(Nc3cc(OCCn4ccnn4)cc(C(F)(F)F)c3)ncc2F)CC(C)(C)N1` [Compound I-32, N2-(3-(2-(1H-1,2,3-triazol-1-yl)ethoxy)-5-(trifluoromethyl)phenyl)-5-fluoro-N4-(2,2,6,6-tetramethylpiperidin-4-yl)pyrimidine-2,4-diamine], 500 to 1000 nM.
For the compound `CN1C(C)(C)CC(Nc2nc(Nc3ccc(OC4CCN(CC(F)(F)F)CC4)c(OC(F)F)c3)ncc2F)CC1(C)C` [Compound I-145, N2-(4-(1-(2,2,2-trifluoroethyl)piperidin-4-yloxy)-3-(difluoromethoxy)phenyl)-5-fluoro-N4-(1,2,2,6,6-pentamethylpiperidin-4-yl)pyrimidine-2,4-diamine], the IC50 was 250 to 500 nM.
Regarding `CC(=O)N1CCC(Oc2c(F)cc(Nc3ncc(F)c(NC4CC(C)(C)N(C)C(C)(C)C4)n3)cc2F)CC1` [III-91, 1-(4-(2,6-difluoro-4-(5-fluoro-4-(1,2,2,6,6-pentamethylpiperidin-4-ylamino)pyrimidin-2-ylamino)phenoxy)piperidin-1-yl)ethanone], the IC50 was 500 to 1000 nM.
Still for that read-out and setting: for `CC1(C)CC(Nc2nc(Nc3ccc(OC4CCN(CCO)CC4)c(OC(F)F)c3)ncc2F)CC(C)(C)N1` [III-38, 2-(4-(2-(Difluoromethoxy)-4-(5-fluoro-4-(2,2,6,6-tetramethylpiperidin-4-ylamino)pyrimidin-2-ylamino)phenoxy)piperidin-1-yl)ethanol] the value was 500 to 1000 nM.
With `CC1(C)CC(Nc2nc(Nc3ccc4c(c3)OCC(C(=O)N3CCCCC3)O4)ncc2F)CC(C)(C)N1` (stereo not drawn) [II-3, (6-(4-(2,2,6,6-tetramethylpiperidin-4-ylamino)-5-fluoropyrimidin-2-ylamino)-2,3-dihydrobenzo[b][1,4]dioxin-2-yl)(piperidin-1-yl)methanone], the IC50 is more than 1000 nM.
Still for that read-out and setting: for `CN1C(C)(C)CC(Nc2nc(Nc3ccc(OC(C)(C)CN4CCOCC4)c(OC(F)F)c3)ncc2F)CC1(C)C` [Compound I-123, N2-(4-(2-methyl-1-morpholinopropan-2-yloxy)-3-(difluoromethoxy)phenyl)-5-fluoro-N4-(1,2,2,6,6-pentamethylpiperidin-4-yl)pyrimidine-2,4-diamine] the value was less than 250 nM; for `CC(=O)N1C(C)(C)CC(Nc2nc(Nc3ccc(OC4CCN(C(C)C)CC4)c(OC(F)F)c3)ncc2F)CC1(C)C` [III-4, 1-(4-(2-(3-(Difluoromethoxy)-4-(1-isopropylpiperidin-4-yloxy)phenylamino)-5-fluoropyrimidin-4-ylamino)-2,2,6,6-tetramethylpiperidin-1-yl)ethanone], more than 1000 nM.
On the same count and under the same terms, the same measure for `CC1(C)CC(Nc2nc(Nc3cccc(-c4nnnn4CCN4CCOCC4)c3)ncc2F)CC(C)(C)N1` [III-77, 5-fluoro-N2-(3-(1-(2-morpholinoethyl)-1H-tetrazol-5-yl)phenyl)-N4-(2,2,6,6-tetramethylpiperidin-4-yl)pyrimidine-2,4-diamine]: more than 1000 nM; for `CN1C(C)(C)CC(Nc2nc(Nc3cccc(-c4nnnn4C4CC4)c3)ncc2F)CC1(C)C` [III-72, N2-(3-(1-cyclopropyl-1H-tetrazol-5-yl)phenyl)-5-fluoro-N4-(1,2,2,6,6-pentamethylpiperidin-4-yl)pyrimidine-2,4-diamine]: less than 250 nM; for `Cn1nnnc1-c1cc(Cl)cc(Nc2ncc(F)c(NC3CC(C)(C)NC(C)(C)C3)n2)c1` [III-134, N2-(3-chloro-5-(1-methyl-1H-tetrazol-5-yl)phenyl)-5-fluoro-N4-(2,2,6,6-tetramethylpiperidin-4-yl)pyrimidine-2,4-diamine]: less than 250 nM.
On the same count and under the same terms, the same measure for `CN1C(C)(C)CC(Nc2nc(Nc3ccc(OC4CCCN(S(C)(=O)=O)CC4)c(OC(F)F)c3)ncc2F)CC1(C)C` (stereo not drawn) [III-89, N2-(3-(difluoromethoxy)-4-(1-(methylsulfonyl)azepan-4-yloxy)phenyl)-5-fluoro-N4-(1,2,2,6,6-pentamethylpiperidin-4-yl)pyrimidine-2,4-diamine]: 250 to 500 nM; for `CC1(C)CC(Nc2nc(Nc3ccc(OCCN4CCCC4=O)c(OC(F)F)c3)ncc2F)CC(C)(C)N1` [Compound I-30, 1-(2-(4-(4-(2,2,6,6-tetramethylpiperidin-4-ylamino)-5-fluoropyrimidin-2-ylamino)-2-(difluoromethoxy)phenoxy)ethyl)pyrrolidin-2-one]: 500 to 1000 nM; for `CN1C(C)(C)CC(Nc2nc(Nc3ccc(Oc4ccncc4)c(OC(F)F)c3)ncc2F)CC1(C)C` [Compound I-43, N2-(3-(difluoromethoxy)-4-(pyridin-4-yloxy)phenyl)-5-fluoro-N4-(1,2,2,6,6-pentamethylpiperidin-4-yl)pyrimidine-2,4-diamine]: more than 1000 nM.
`CC(C)N1CCC(Oc2ccc(Nc3ncc(F)c(NC4CC(C)(C)NC(C)(C)C4)n3)cc2OC(F)F)C(F)(F)C1` (stereo not drawn) [III-108, N2-(4-(3,3-difluoro-1-isopropylpiperidin-4-yloxy)-3-(difluoromethoxy)phenyl)-5-fluoro-N4-(2,2,6,6-tetramethylpiperidin-4-yl)pyrimidine-2,4-diamine]: the IC50 is 500 to 1000 nM.
On the same count and under the same terms, for `Cc1nnnn1-c1cc(Nc2ncc(F)c(NC3CC(C)(C)N(CC4CC4)C(C)(C)C3)n2)ccc1F` [Compound I-11, N4-(1-(cyclopropylmethyl)-2,2,6,6-tetramethylpiperidin-4-yl)-5-fluoro-N2-(4-fluoro-3-(5-methyl-1H-tetrazol-1-yl)phenyl)pyrimidine-2,4-diamine] the value was more than 1000 nM.

The same assay, now with this note: human primary T cells stimulated with anti-CD3 + anti-CD28, 24 hours.
In the case of `CC1(C)CC(Nc2nc(Nc3cccc(-c4nnn[nH]4)c3)ncc2C#N)CC(C)(C)N1` [Compound I-85, 5-Cyano-N4-(2,2,6,6-tetramethylpiperidin-4-yl)-N2-[3-(tetrazol-5-yl)]phenyl-2,4-pyrimidinediamine], the IC50 is more than 1000 nM.
As to `Cc1ccc(C)n1-c1cc(Nc2ncc(F)c(NC3CC(C)(C)N(C)C(C)(C)C3)n2)ccc1OC(=O)NC(C)C` [Compound I-103, N2-[3-(2,5-Dimethyl-pyrrol-1-yl)-4-(isopropylaminocarboxyloxy)]phenyl-5-fluoro-N4-(1,2,2,6,6-pentamethylpiperidin-4-yl)-2,4-pyrimidinediamine], the IC50 was 500 to 1000 nM.
The same measure, in the same setting: for `Cc1ccc(C)n1-c1cc(Nc2ncc(F)c(NC3CC(C)(C)NC(C)(C)C3)n2)ccc1F` [Compound I-101, N2-[3-(2,5-Dimethyl-pyrrol-1-yl)-4-fluoro]phenyl-5-fluoro-N4-(2,2,6,6-tetramethylpiperidin-4-yl)-2,4-pyrimidinediamine] the value was 250 to 500 nM.
Consider `CN1C(C)(C)CC(Nc2nc(Nc3cccc(-c4nnnn4C4CC4)c3)ncc2C#N)CC1(C)C` [Compound I-94, 5-Cyano-N2-{3-[1-N-cyclopropyl-(tetrazol-5-yl)]}phenyl-N4-(1,2,2,6,6-pentamethylpiperidin-4-yl)-2,4-pyrimidinediamine], for which the IC50 is less than 250 nM.
Same read-out and setting: for `CN1C(C)(C)CC(Nc2nc(Nc3cccc(-n4nnnc4SCC(F)(F)F)c3)ncc2F)CC1(C)C` [Compound I-69, 5-fluoro-N4-(1,2,2,6,6-pentamethylpiperidin-4-yl)-N2-{3-[5-(2,2,2-trifluoroethyl)thio]-1H-tetrazol-1-yl}phenyl-2,4-pyrimidinediamine] the value was less than 250 nM; for `CCCc1nnnn1-c1cc(Nc2ncc(C(N)=O)c(NC3CC(C)(C)N(C)C(C)(C)C3)n2)ccc1OC` [Compound I-75, 5-aminocarbonyl-N2-[4-methoxy-3-(5-propyl-1H-tetrazol-1-yl)]phenyl-N4-(1,2,2,6,6-pentamethylpiperidin-4-yl)-2,4-pyrimidinediamine], 500 to 1000 nM.
With `Cc1ccc(C)n1-c1cc(Nc2ncc(F)c(NC3CC(C)(C)N(C)C(C)(C)C3)n2)ccc1C#N` [Compound I-102, N2-[4-Cyano-3-(2,5-dimethyl-pyrrol-1-yl)]phenyl-5-fluoro-N4-(1,2,2,6,6-pentamethylpiperidin-4-yl)-2,4-pyrimidinediamine], the IC50 is 250 to 500 nM.
